Values of other authors as cited in US20020025537A1, “High-throughput methods for generating and screening compounds that affect cell viability” (priority 2000, published 2002).
Bridge positions count the residues as written; N and C are the ends. Ends that are not written are not given here.

What was measured:
[1] = tested on: methicillin resistant S. aureus and vancomycin resistant E. faecalis; conditions: intravenous administration
[2] = tested on: Gram negative and Gram positive pathogenic bacteria, including strains of methicillin resistant S. aureus and vancomycin resistant E. faecalis; conditions: in vitro; Gram negative and Gram positive pathogens incl. MRSA and vancomycin resistant E. faecalis

Q: With “protegrin-1 (RGGRLCYCRRRFCVCVGR-NH2; disulfide 8-13, 6-15; ends not checked; UniProt P32194 131-148, looked up) [PG-1, a native peptide obtained from porcine leukocytes]” as the substance, how does the “toxicity to the mice” value [1] read?
A: without apparent toxicity

Q: What about the “protection from lethal challenges” value ([1]; mice, challenge with MRSA or vancomycin resistant E. faecalis) of the same substance?
A: protected mice from lethal challenges

Q: What about the bactericidal activity [2] of the same substance?
A: rapid bactericidal activity
